ChEMBL document CHEMBL1137771, “Non-nucleoside inhibitors of HCV polymerase NS5B. Part 2: Synthesis and structure-activity relationships of benzothiazine-substituted quinolinediones” (Bioorg Med Chem Lett, 2009)

How the values were obtained:
Hepatitis C virus [1] = test: Inhibition of HCV genotype 1b isolate con1 NS5B polymerase assessed as incorporation of radiolabeled nucleotide into RNA product; parameters: species or system Hepacivirus hominis
[2] = Cytotoxicity against human 2209-23 cells by WST1 assay; format: cell-based
Hepatitis C virus [3] = test: Antiviral activity against HCV genotype 1b isolate con1 infected in human 2209-23 cells assessed as inhibition of [3H]thymidine incorporation into DNA by scintillation proximity assay in presence of 5% fetal bovine serum; format: functional, organism-based, Hepacivirus hominis; conditions: isolate Con1, 2209-23
Hepatitis C virus [4] = test: Antiviral activity against HCV genotype 1b isolate con1 infected in human 2209-23 cells assessed as inhibition of [3H]thymidine incorporation into DNA by scintillation proximity assay in presence of 40% human serum albumin; format: functional, organism-based, Hepacivirus hominis; conditions: isolate Con1, 2209-23

IC50 (Hepatitis C virus [1]) [nM]	EC50 (Hepatitis C virus [3]) [nM]	EC50 (Hepatitis C virus [4]) [nM]	Structure (SMILES)	CC50 [2] [nM]
68	6930	–	CS(=O)(=O)NCc1ccc2c(c1)S(=O)(=O)C=C(c1c(O)c3cc(F)ccc3n(Cc3ccc(F)cc3)c1=O)N2	> 50000
14	15	–	CS(=O)(=O)Nc1ccc2c(c1)S(=O)(=O)C=C(c1c(O)c3cc(F)ccc3n(Cc3ccc(F)c(F)c3)c1=O)N2	> 50000
16	18	–	CS(=O)(=O)Nc1ccc2c(c1)S(=O)(=O)C=C(c1c(O)c3cc(F)ccc3n(Cc3ccc(F)c(Cl)c3)c1=O)N2	> 50000
18	100	–	CS(=O)(=O)Nc1ccc2c(c1)S(=O)(=O)C=C(c1c(O)c3cc(F)ccc3n(CC3CCCCC3)c1=O)N2	> 50000
69	1740	–	O=c1c(C2=CS(=O)(=O)c3cc(O)ccc3N2)c(O)c2cc(F)ccc2n1Cc1ccc(F)cc1	> 50000
384	2280	–	CS(=O)(=O)Nc1ccc2c(c1)S(=O)(=O)C=C(c1c(O)c3ccc(Cl)cc3n(Cc3ccc(F)cc3)c1=O)N2	> 50000
25	869	–	CNC(=O)COc1ccc2c(c1)S(=O)(=O)C=C(c1c(O)c3cc(F)ccc3n(Cc3ccc(F)cc3)c1=O)N2	> 50000
7	15	–	NS(=O)(=O)Nc1ccc2c(c1)S(=O)(=O)C=C(c1c(O)c3cc(F)ccc3n(Cc3ccc(F)cc3)c1=O)N2	> 50000
10	166	–	CS(=O)(=O)Nc1ccc2c(c1)S(=O)(=O)C=C(c1c(O)c3cc(Cl)ccc3n(Cc3ccc(F)cc3)c1=O)N2	> 50000
10	1190	–	NC(=O)COc1ccc2c(c1)S(=O)(=O)C=C(c1c(O)c3cc(F)ccc3n(Cc3ccc(F)cc3)c1=O)N2	> 50000
106	1470	–	CN(c1ccc2c(c1)S(=O)(=O)C=C(c1c(O)c3cc(F)ccc3n(Cc3ccc(F)cc3)c1=O)N2)S(C)(=O)=O	> 50000
12	–	241	CC(C)(C)CCn1c(=O)c(C2=CS(=O)(=O)c3cc(NS(C)(=O)=O)ccc3N2)c(O)c2cc(F)ccc21	> 50000
694	4640	–	N#Cc1ccc2c(c1)S(=O)(=O)C=C(c1c(O)c3cc(F)ccc3n(Cc3ccc(F)cc3)c1=O)N2	> 50000
148	1280	–	O=c1c(C2=CS(=O)(=O)c3cc(F)ccc3N2)c(O)c2cc(F)ccc2n1Cc1ccc(F)cc1	> 50000
103	1200	–	CS(=O)(=O)Nc1ccc2c(c1)S(=O)(=O)C=C(c1c(O)c3cc(F)ccc3n(Cc3ccccn3)c1=O)N2	> 50000
17	25	–	Cc1ccc2c(c1)c(O)c(C1=CS(=O)(=O)c3cc(NS(C)(=O)=O)ccc3N1)c(=O)n2Cc1ccc(F)cc1	> 50000
734	827	–	Nc1ccc2c(c1)S(=O)(=O)C=C(c1c(O)c3cc(F)ccc3n(Cc3ccc(F)cc3)c1=O)N2	> 50000
22	589	–	CS(=O)(=O)Nc1ccc2c(c1)S(=O)(=O)C=C(c1c(O)c3cc(F)ccc3n(Cc3cccnc3)c1=O)N2	> 50000
41	9	–	CCCC(C)n1c(=O)c(C2=CS(=O)(=O)c3cc(NS(C)(=O)=O)ccc3N2)c(O)c2cc(F)ccc21 (stereo not given)	> 50000
3700	11900	–	CS(=O)(=O)c1ccc2c(c1)S(=O)(=O)C=C(c1c(O)c3cc(F)ccc3n(Cc3ccc(F)cc3)c1=O)N2	> 50000
869	10900	–	CC(=O)Nc1ccc2c(c1)S(=O)(=O)C=C(c1c(O)c3cc(F)ccc3n(Cc3ccc(F)cc3)c1=O)N2	> 50000
–	726	–	O=c1c(C2=CS(=O)(=O)c3ccccc3N2)c(O)c2cc(F)ccc2n1Cc1ccc(F)cc1	> 50000
